US10696707B2, “Polyene macrolide derivative” (Shionogi & Co., Ltd., priority 2014, dated 2020)
Values after ≈ are worked out from the molar mass of the structure shown. Read-outs that look alike come from different tables or passages of the source. One block for each compound: values may come before it.

Tests used:
Type in all cases: cell-based
[1] = system: A. fumigatus ATCC204305; experiment: Antifungal activity test, MIC by broth microdilution (CLSI M38-A2); details: A. fumigatus ATCC204305, 35° C., 24-48 hours
Description: (§1) The Minimum Inhibitory Concentration (MIC) values of the present compound against yeast and filamentous fungi were determined by broth microdilution assay according to the Clinical Laboratory Standards Institute (CLSI) guidelines outlined in documents M27-A3 and M38-A2. The medium used in the assay consisted of RPMI1640 (with glutamine, without bicarbonate) with 2% glucose and 0.165 mol/L morpholinepropanesulfonic acid (MOPS) with pH adjusted to 7.0 using 1 mol/L sodium hydroxide. The present compound was dissolved in dimethyl sulfoxide (DMSO). A series of two-fold dilutions were prepared in DMSO, and then 2 μL of the diluted compound was added to each well in 96-well sterile plates. Each inoculum was prepared by diluting a suspension of Candida spp. or a conidia suspension of Aspergillus spp. suspended in sterile saline solution, and then 200 μL was added to each well to a predetermined concentration using RPMI/MOPS (final concentration for each solution: approximately 1×10^3 cells/mL and approximately 1×10^4 CFU/mL). Plates of Candida spp. and Aspergillus spp. were incubated at 35° C. for 24-48 hours. The MIC was defined as the lowest concentration giving 100% inhibition compared to the growth control.

[2] = system: A. flavus ATCC204304; experiment: as above; details: A. flavus ATCC204304, 35° C., 24-48 hours
Description: as §1

[3] = system: C. albicans ATCC90028; experiment: Antifungal activity test, MIC by broth microdilution (CLSI M27-A3); details: C. albicans ATCC90028, 35° C., 24-48 hours
Description: as §1

[4] = system: red blood cells (5% RBC suspension); experiment: Test Example 2-1: in vitro hemolytic activity test (upper limit 50, 80, 100 or 200 μmol/L); details: 5% RBC suspension, 37° C., one hour, read-out: hemolysis IC50
Description: Nephrotoxic potentials of the compounds of the present invention except the compounds whose X is —N(R^F)—CO—X^1 and X^1 is the group represented by formula (III) and T is —N(R^a5)— were investigated by in vitro hemolytic activity test under the condition, in that, the upper limit was 50 μmol/L, 80 μmol/L, 100 μmol/L, or 200 μmol/L as the required concentration to 50% of hemolysis (IC50).
Defibrinated sterile blood was centrifuged at 700×g for 3 minutes and, and the supernatant was removed for 100% of red blood cells. After the cleaning with physiological saline, the washed blood cells was suspended in the medium (Earle's balanced salt sodium, bicarbonate, 0.1 g/L L-glutamine without phenol red), and was diluted by 5% (5% RBC suspension).
The washed blood was diluted by 5% in water for injection (solution of complete hemolysis), and was used as the indication of optical density for complete hemolysis.
The compounds of the present invention solution in DMSO (several and doubling dilutions starting from 2.5 mmol/L, 4 mmol/L, 5 mmol/L, or 10 mmol/L), DMSO as the negative control, and Amphotericin B as the positive control were used, and each 5 μL of these was added in to a well of V-form 96 well type microplate.
Finally, the maximum concentration of the compounds of the present invention solution in DMSO was 50 μmol/L, 80 μmol/L, 100 μmol/L, or 200 μmol/L by adding 245 μL of the medium or 5% RBC suspension into the well.
Two hundred fifty μL of the solution of complete hemolysis was added into another well and the microplate was incubated at 37° C. in 5% of CO2 concentration for an hour.
After the incubation, each 100 μL of supernatants in wells was collected by centrifugation of the microplate at 300×g for 5 minutes and was located on a well of flat-form 96 well type microplate. An absorbance of each supernatant was measured at wavelength of 540 nm.
Percent hemolysis was calculated by using the followed equation. The required concentration to 50% of hemolysis (IC50) was calculated based on the percent hemolysis. […] Hemolysis (%)=(CR−VM)×100÷(VL−VR) Where:
CR: Absorbance of 5% RBC suspension incubated with the compounds of the present invention solution in DMSO
VM: Absorbance of medium incubated with the compounds of the present invention solution in DMSO
VL: Absorbance of solution of complete hemolysis
VR: Absorbance of 5% RBC suspension incubated with DMSO
The “hemolysis method” in the table means any tests the upper concentration of above IC50 are 50 μmol/L, 80 μmol/L, 100 μmol/L or 200 μmol/L. The “>50”, “>80”, “>100” or “>200” in the table means above IC50 value exceeded the each upper concentration.

[5] = lowest concentration giving 100% inhibition
[6] = broth microdilution, 100% inhibition
[7] = hemolysis method 50 (upper concentration 50 μmol/L)
[8] = hemolysis method 100 (upper concentration 100 μmol/L)

MIC [1, 5]: 1 µg/mL (≈ 0.964 µM)
MIC [2, 5]: 0.5 µg/mL (≈ 0.482 µM)
MIC [3, 5]: 0.5 µg/mL (≈ 0.482 µM)
SMILES: C[C@@H]1[C@H](O)[C@@H](C)/C=C/C=C/C=C/C=C/C=C/C=C/C=C/[C@H](O[C@@H]2O[C@H](C)[C@@H](O)[C@H](NC(=N)N)[C@@H]2O)C[C@@H]2O[C@](O)(C[C@@H](O)C[C@@H](O)[C@H](O)CC[C@@H](O)C[C@@H](O)CC(=O)O[C@H]1C)C[C@H](O)[C@H]2NC(=O)NCC(N)=O [I-346]

MIC [1, 5]: 1 µg/mL (≈ 0.963 µM)
MIC [2, 5]: 1 µg/mL (≈ 0.963 µM)
MIC [3, 5]: 0.25 µg/mL (≈ 0.241 µM)
SMILES: C[C@@H]1[C@H](O)[C@@H](C)/C=C/C=C/C=C/C=C/C=C/C=C/C=C/[C@H](O[C@@H]2O[C@H](C)[C@@H](O)[C@H](NC(=N)N)[C@@H]2O)C[C@@H]2O[C@](O)(C[C@@H](O)C[C@@H](O)[C@H](O)CC[C@@H](O)C[C@@H](O)CC(=O)O[C@H]1C)C[C@H](O)[C@H]2NC(=O)NNC(N)=O [I-330]

MIC [1, 6]: 0.5 µg/mL (≈ 0.486 µM)
MIC [2, 6]: 1 µg/mL (≈ 0.973 µM)
MIC [3, 6]: 0.5 µg/mL (≈ 0.486 µM)
SMILES: C[C@@H]1[C@H](O)[C@@H](C)/C=C/C=C/C=C/C=C/C=C/C=C/C=C/[C@H](O[C@@H]2O[C@H](C)[C@@H](O)[C@H](N)[C@@H]2O)C[C@@H]2O[C@](O)(C[C@@H](O)C[C@@H](O)[C@H](O)CC[C@@H](O)C[C@@H](O)CC(=O)O[C@H]1C)C[C@H](O)[C@H]2NC(=O)N(O)C[C@H](O)CO [I-275]

MIC [1, 6]: 1 µg/mL (≈ 0.965 µM)
MIC [2, 6]: 0.5 µg/mL (≈ 0.483 µM)
MIC [3, 6]: 0.5 µg/mL (≈ 0.483 µM)
SMILES: C[C@@H]1[C@H](O)[C@@H](C)/C=C/C=C/C=C/C=C/C=C/C=C/C=C/[C@H](O[C@@H]2O[C@H](C)[C@@H](O)[C@H](N)[C@@H]2O)C[C@@H]2O[C@](O)(C[C@@H](O)C[C@@H](O)[C@H](O)CC[C@@H](O)C[C@@H](O)CC(=O)O[C@H]1C)C[C@H](O)[C@H]2NC(=O)NCC1(C(=O)O)CC1 [I-202]

MIC ([1]; Aspergillus fumigatus, lowest concentration giving 100% inhibition, read-out: MIC): 1 µg/mL (≈ 0.923 µM)
MIC ([2]; Aspergillus flavus, lowest concentration giving 100% inhibition, read-out: MIC): 0.5 µg/mL (≈ 0.462 µM)
MIC ([3]; Candida albicans, lowest concentration giving 100% inhibition, read-out: MIC): 0.25 µg/mL (≈ 0.231 µM)
SMILES: C[C@@H]1[C@H](O)[C@@H](C)/C=C/C=C/C=C/C=C/C=C/C=C/C=C/[C@H](O[C@@H]2O[C@H](C)[C@@H](O)[C@H](NC(=N)N)[C@@H]2O)C[C@@H]2O[C@](O)(C[C@@H](O)C[C@@H](O)[C@H](O)CC[C@@H](O)C[C@@H](O)CC(=O)O[C@H]1C)C[C@H](O)[C@H]2NC(=O)NNC(=O)[C@H](O)CO [I-367]

SMILES: C[C@@H]1[C@H](O)[C@@H](C)/C=C/C=C/C=C/C=C/C=C/C=C/C=C/[C@H](O[C@@H]2O[C@H](C)[C@@H](O)[C@H](N)[C@@H]2O)C[C@@H]2O[C@](O)(C[C@@H](O)C[C@@H](O)[C@H](O)CC[C@@H](O)C[C@@H](O)CC(=O)O[C@H]1C)C[C@H](O)[C@H]2NC(=O)NCCC(N)=O [I-81]
IC50 [4, 7]: > 50 µM

SMILES: C[C@@H]1[C@H](O)[C@@H](C)/C=C/C=C/C=C/C=C/C=C/C=C/C=C/[C@H](O[C@@H]2O[C@H](C)[C@@H](O)[C@H](N)[C@@H]2O)C[C@@H]2O[C@](O)(C[C@@H](O)C[C@@H](O)[C@H](O)CC[C@@H](O)C[C@@H](O)CC(=O)O[C@H]1C)C[C@H](O)[C@H]2NC(=O)N(C)C [I-10]
IC50 [4, 8]: > 100 µM

SMILES: C[C@@H]1[C@H](O)[C@@H](C)/C=C/C=C/C=C/C=C/C=C/C=C/C=C/[C@H](O[C@@H]2O[C@H](C)[C@@H](O)[C@H](N)[C@@H]2O)C[C@@H]2O[C@](O)(C[C@@H](O)C[C@@H](O)[C@H](O)CC[C@@H](O)C[C@@H](O)CC(=O)O[C@H]1C)C[C@H](O)[C@H]2NC(=O)NC(CO)Cc1c[nH]cn1 (some centres unmarked) [I-6]
IC50 [4, 8]: 75 µM

SMILES: CON(C)C(=O)N[C@H]1[C@@H]2C[C@@H](O[C@@H]3O[C@H](C)[C@@H](O)[C@H](N)[C@@H]3O)/C=C/C=C/C=C/C=C/C=C/C=C/C=C/[C@H](C)[C@@H](O)[C@@H](C)[C@H](C)OC(=O)C[C@H](O)C[C@H](O)CC[C@@H](O)[C@H](O)C[C@H](O)C[C@](O)(C[C@@H]1O)O2 [I-282]
IC50 [4, 7]: > 50 µM

SMILES: C[C@@H]1[C@H](O)[C@@H](C)/C=C/C=C/C=C/C=C/C=C/C=C/C=C/[C@H](O[C@@H]2O[C@H](C)[C@@H](O)[C@H](NC[C@@]3(O)OC[C@@H](O)[C@H](O)[C@@H]3O)[C@@H]2O)C[C@@H]2O[C@](O)(C[C@@H](O)C[C@@H](O)[C@H](O)CC[C@@H](O)C[C@@H](O)CC(=O)O[C@H]1C)C[C@H](O)[C@H]2NC(=O)NC[C@H](O)CO [I-368]
IC50 ([4]; Erythrocyte, 1 h, hemolysis method 50 (upper concentration 50 μmol/L)): > 50 µM

SMILES: C[C@@H]1[C@H](O)[C@@H](C)/C=C/C=C/C=C/C=C/C=C/C=C/C=C/[C@H](O[C@@H]2O[C@H](C)[C@@H](O)[C@H](NC(=O)CN(C)C)[C@@H]2O)C[C@@H]2O[C@](O)(C[C@@H](O)C[C@@H](O)[C@H](O)CC[C@@H](O)C[C@@H](O)CC(=O)O[C@H]1C)C[C@H](O)[C@H]2NC(=O)NCCN(C)C [I-327]
IC50 [4, 8]: > 50 µM

SMILES: C[C@@H]1[C@H](O)[C@@H](C)/C=C/C=C/C=C/C=C/C=C/C=C/C=C/[C@H](O[C@@H]2O[C@H](C)[C@@H](O)[C@H](N)[C@@H]2O)C[C@@H]2O[C@](O)(C[C@@H](O)C[C@@H](O)[C@H](O)CC[C@@H](O)C[C@@H](O)CC(=O)O[C@H]1C)C[C@H](O)[C@H]2NC(=O)NCCNC(N)=O [I-93]
IC50 [4, 7]: > 50 µM

SMILES: C[C@@H]1[C@H](O)[C@@H](C)/C=C/C=C/C=C/C=C/C=C/C=C/C=C/[C@H](O[C@@H]2O[C@H](C)[C@@H](O)[C@H](N)[C@@H]2O)C[C@@H]2O[C@](O)(C[C@@H](O)C[C@@H](O)[C@H](O)CC[C@@H](O)C[C@@H](O)CC(=O)O[C@H]1C)C[C@H](O)[C@H]2NC(=O)N1CCCCC1c1ccccc1 (some centres unmarked) [I-22]
IC50 ([4]; hemolysis method 80 (upper concentration 80 μmol/L)): > 80 µM

SMILES: CCCN(O)C(=O)N[C@H]1[C@@H]2C[C@@H](O[C@@H]3O[C@H](C)[C@@H](O)[C@H](N)[C@@H]3O)/C=C/C=C/C=C/C=C/C=C/C=C/C=C/[C@H](C)[C@@H](O)[C@@H](C)[C@H](C)OC(=O)C[C@H](O)C[C@H](O)CC[C@@H](O)[C@H](O)C[C@H](O)C[C@](O)(C[C@@H]1O)O2 [I-280]
IC50 [4, 7]: > 50 µM

SMILES: C[C@@H]1[C@H](O)[C@@H](C)/C=C/C=C/C=C/C=C/C=C/C=C/C=C/[C@H](O[C@@H]2O[C@H](C)[C@@H](O)[C@H](N)[C@@H]2O)C[C@@H]2O[C@](O)(C[C@@H](O)C[C@@H](O)[C@H](O)CC[C@@H](O)C[C@@H](O)CC(=O)O[C@H]1C)C[C@H](O)[C@H]2NC(=O)NC(C(=O)O)[C@H](C)O (some centres unmarked) [I-291]
IC50 [4, 7]: > 50 µM

SMILES: C[C@@H]1[C@H](O)[C@@H](C)/C=C/C=C/C=C/C=C/C=C/C=C/C=C/[C@H](O[C@@H]2O[C@H](C)[C@@H](O)[C@H](N)[C@@H]2O)C[C@@H]2O[C@](O)(C[C@@H](O)C[C@@H](O)[C@H](O)CC[C@@H](O)C[C@@H](O)CC(=O)O[C@H]1C)C[C@H](O)[C@H]2NC(=O)NC1CCS(=O)(=O)C1 (some centres unmarked) [I-231]
IC50 [4, 7]: > 50 µM
